Tests used:
A673 = assay: Inhibition of cell proliferation of human A673 cells incubated for 72 hrs by CyQUANT assay; format: functional, cell-based; details: A673, 72 h
HCC70 = assay: Inhibition of cell proliferation of human HCC70 cells incubated for 72 hrs by CyQUANT assay; format: functional, cell-based; details: HCC70, 72 h

| Structure (SMILES) | IC50 (A673) [nM] | IC50 (HCC70) [nM] |
| --- | --- | --- |
| FC(F)(F)c1cnc(N[C@H]2CCCNC2)nc1-c1n[nH]c2ccccc12 | 20 |  |
| Clc1cnc(N[C@@H]2CCCNC2)nc1-c1c[nH]c2ccccc12 | 20 |  |
| Clc1cnc(N[C@H]2CCCNC2)nc1-c1c[nH]c2ccccc12 | ≤ 20 |  |
| CNC(=O)[C@H]1CNC[C@H](Nc2ncc(C(F)(F)F)c(-c3c[nH]c4ccccc34)n2)C1 | 20 |  |
| CN1CCC[C@H](Nc2ncc(C(F)(F)F)c(-c3c[nH]c4cc(S(=O)(=O)N5CCC(C)(O)C5)ccc34)n2)C1 (some centres undefined) |  | 1000 |
| Clc1cnc(N[C@H]2CCCNC2)nc1-c1cn(-c2ccccc2)c2ccccc12 | 200 |  |
| O[C@@H]1CCNC[C@H]1Nc1ncc(Cl)c(-c2c[nH]c3ccccc23)n1 | 200 |  |
| N#Cc1ccc2c(-c3nc(N[C@H]4CCCNC4)ncc3Cl)c[nH]c2c1 | < 20 | < 100 |
| Cn1cc(-c2ccc3[nH]cc(-c4nc(N[C@H]5CCCNC5)ncc4C(F)(F)F)c3c2)cn1 | 200 |  |
| CCc1cnc(N[C@H]2CCCNC2)nc1-c1c[nH]c2c(C)cccc12 | 20 |  |
| FC(F)(F)c1cnc(N[C@H]2CCCNC2)nc1-c1c[nH]c2cnc(Cl)cc12 | 20 | 100 |
| COCCn1cc(-c2nc(N[C@H]3CCCNC3)ncc2C(F)(F)F)c2ccccc21 | 200 |  |
| Fc1cncc(-c2ccc3c(-c4nc(N[C@H]5CCCNC5)ncc4C(F)(F)F)c[nH]c3c2)c1 |  | 100 |
| Fc1cccc2c(-c3nc(N[C@H]4CCCNC4)ncc3Cl)c[nH]c12 | < 20 | 100 |
| CC(=O)c1cccc2c(-c3nc(N[C@H]4CCCNC4)ncc3Cl)c[nH]c12 | < 20 |  |
| CCc1cnc(N[C@@H]2CCCNC2)nc1-c1n[nH]c2ncccc12 | 20 |  |
| Fc1cccc2c(-c3nc(N[C@H]4CCCNC4)ncc3Cl)n[nH]c12 | < 20 |  |
| FC(F)(F)c1cnc(N[C@H]2CNC[C@@H](c3nnc4ccccn34)C2)nc1-c1c[nH]c2ccccc12 | 200 |  |
| Cc1[nH]ncc1-c1cccc2c(-c3nc(N[C@@H]4CCCNC4)ncc3C(F)(F)F)c[nH]c12 | < 20 | 1000 |
| CCc1cnc(N[C@H]2CCCNC2)nc1-c1c[nH]c2ncc(F)cc12 | 200 |  |
| N#C[C@@H]1CCN(C(=O)c2ccc3c(-c4nc(N[C@H]5CCCNC5)ncc4C(F)(F)F)c[nH]c3c2)C1 | 20 | 100 |
| Cc1[nH]c2ccccc2c1-c1nc(N[C@H]2CCCNC2)ncc1Cl | 20 |  |
| FC(F)(F)c1cnc(N[C@H]2CCCNC2)nc1-c1c[nH]c2cc(-c3cn[nH]c3)ccc12 | 20 |  |

| Structure (SMILES) | IC50 (A673) [nM] | IC50 (HCC70) [nM] |
| --- | --- | --- |
| CCOP(=O)(OCC)c1ccc2[nH]cc(-c3nc(N[C@H]4CCCNC4)ncc3C(F)(F)F)c2c1 | 200 |  |
| FC(F)(F)c1cnc(N[C@H]2CCCNC2)nc1-c1c[nH]c2ccc(Cl)cc12 | < 20 |  |
| Cc1cccc2c(-c3nc(N[C@H]4CCCNC4)ncc3F)c[nH]c12 | 200 |  |
| C[C@H]1CCNC[C@@H]1Nc1ncc(Cl)c(-c2c[nH]c3ccccc23)n1 | 200 |  |
| C[C@H](O)c1cnc(N[C@H]2CCCNC2)nc1-c1c[nH]c2ccccc12 | 200 |  |
| N#Cc1cccc2c(-c3nc(N[C@H]4CCCNC4)ncc3C(F)(F)F)c[nH]c12 | < 20 |  |
| C[C@@H]1CNC[C@@H](Nc2ncc(Cl)c(-c3c[nH]c4ccccc34)n2)C1 | 20 |  |
| Clc1cnc(NC2(c3ccccc3)CCCNC2)nc1-c1c[nH]c2ccccc12 (centres undefined) | 200 |  |
| CC1(C)CCNC[C@H]1Nc1ncc(C(F)(F)F)c(-c2c[nH]c3ccccc23)n1 | 200 |  |
| Fc1cccc2c(-c3nc(N[C@H]4CCCNC4)ncc3C(F)(F)F)n[nH]c12 | < 20 |  |
| F[C@@H]1CCNC[C@H]1Nc1ncc(Cl)c(-c2c[nH]c3ccccc23)n1 | 20 |  |
| Clc1cnc(N[C@H]2CCCNC2)nc1-c1c[nH]c2c(N3CCOCC3)cccc12 | 20 |  |
| COCCn1cc(-c2nc(N[C@H]3CCCNC3)ncc2Cl)c2ccccc21 | 200 |  |
| CC1CCC(Nc2ncc(Cl)c(-c3c[nH]c4ccccc34)n2)CN1 (centres undefined) | 20 |  |
| Clc1cnc(NC2CNCCC2c2ccccc2)nc1-c1c[nH]c2ccccc12 (centres undefined) | 200 |  |
| Fc1cnc2[nH]cc(-c3nc(N[C@H]4CCCNC4)ncc3C(F)(F)F)c2c1 | < 20 | < 100 |
| Cc1ccc2[nH]cc(-c3nc(N[C@H]4CCCNC4)ncc3Cl)c2c1 | 200 |  |
| CNC(=O)[C@@H]1CNC[C@@H](Nc2ncc(C(F)(F)F)c(-c3c[nH]c4ccccc34)n2)C1 | 200 |  |
| Cc1cccc2c(-c3nc(N[C@H]4CCCNC4)ncc3Cl)c[nH]c12 | < 20 | < 100 |
| Cn1cc(-c2ccc3c(-c4nc(N[C@H]5CCCNC5)ncc4C(F)(F)F)c[nH]c3c2)cn1 | < 20 |  |
| CNC(=O)[C@@H]1CNC[C@H](Nc2ncc(C(F)(F)F)c(-c3c[nH]c4ccccc34)n2)C1 | 20 |  |
| Cc1cnc(N[C@H]2CCCNC2)nc1-c1c[nH]c2ccccc12 | 20 |  |
| CC(C)n1cc(-c2nc(N[C@H]3CCCNC3)ncc2Cl)c2ccccc21 | 200 |  |

| Structure (SMILES) | IC50 (A673) [nM] | IC50 (HCC70) [nM] |
| --- | --- | --- |
| FC(F)(F)c1cnc(N[C@H]2CCCNC2)nc1-c1c[nH]c2cc(-c3cccc(Oc4ccccc4)c3)ccc12 |  | 1000 |
| CS(=O)(=O)c1cccc2c(-c3nc(N[C@H]4CCCNC4)ncc3C(F)(F)F)c[nH]c12 | < 20 | < 100 |
| Cc1cccc2c(-c3nc(N[C@H]4CCCNC4)ncc3CC(C)C)c[nH]c12 | 200 |  |
| CC(C)c1cnc(N[C@H]2CCCNC2)nc1-c1c[nH]c2ccccc12 | 200 | 1000 |
| FC(F)(F)c1cnc(N[C@H]2CCCNC2)nc1-c1c[nH]c2ccc(-c3cn[nH]c3)cc12 | 200 |  |
| Clc1cnc(N[C@H]2CCCNC2)nc1-c1c[nH]c2ccncc12 | 20 |  |
| FC(F)(F)c1cnc(N[C@H]2CCCNC2)nc1-c1c[nH]c2c(Cl)cccc12 | < 20 |  |
| CCc1cnc(N[C@H]2CCCNC2)nc1-c1n[nH]c2ccccc12 | 20 |  |
| O=C(O)c1cccc2c(-c3nc(N[C@H]4CCCNC4)ncc3Cl)c[nH]c12 | 200 |  |
| OC1CCC(c2cccc3c(-c4nc(N[C@H]5CCCNC5)ncc4C(F)(F)F)c[nH]c23)CC1 (some centres undefined) | < 20 |  |
| FC(F)(F)Cc1cnc(N[C@H]2CCCNC2)nc1-c1n[nH]c2ccccc12 | 20 |  |
| Clc1cnc(N[C@H]2CCCNC2)nc1-c1c[nH]c2cccnc12 | 20 |  |
| CNC(=O)c1cccc2c(-c3nc(N[C@H]4CCCNC4)ncc3C(F)(F)F)cn(C)c12 |  | 1000 |
| Clc1cnc(N[C@H]2CCCNC2)nc1-c1c[nH]c2ccc(N3CCOCC3)cc12 | 20 |  |
| CC1NCCCC1Nc1ncc(Cl)c(-c2c[nH]c3ccccc23)n1 (centres undefined) | 20 |  |
| CNC(=O)[C@H]1CNC[C@@H](Nc2ncc(C(F)(F)F)c(-c3c[nH]c4ccccc34)n2)C1 | 200 |  |
| Clc1cnc(N[C@H]2CCCNC2)nc1-c1c[nH]c2ncccc12 | 20 | < 100 |
| CCOP(=O)(OCC)c1ccc2c(-c3nc(N[C@H]4CCCNC4)ncc3C(F)(F)F)c[nH]c2c1 | 20 |  |
| Clc1cnc(N[C@H]2CCCNC2)nc1-c1cnn2ccccc12 | 20 | 100 |
| N#Cc1ccc2c(-c3nc(N[C@@H]4CCCNC4)ncc3C(F)(F)F)c[nH]c2c1-c1ccnnc1 | < 20 | < 100 |
| O[C@H]1CC[C@@H](c2cccc3c(-c4nc(N[C@H]5CCCNC5)ncc4C(F)(F)F)c[nH]c32)CC1 | 200 |  |
| CC1(Nc2ncc(Cl)c(-c3c[nH]c4ccccc34)n2)CCCNC1 (centres undefined) | 200 |  |
| CNC(=O)c1ccc2c(-c3nc(N[C@H]4CCCNC4)ncc3C(F)(F)F)c[nH]c2c1 | 20 |  |

| Structure (SMILES) | IC50 (A673) [nM] | IC50 (HCC70) [nM] |
| --- | --- | --- |
| CNC(=O)c1cccc2c(-c3nc(N[C@H]4CCCNC4)ncc3C(F)(F)F)c[nH]c12 | 20 | 100 |
| N#Cc1ccc2[nH]cc(-c3nc(N[C@H]4CCCNC4)ncc3C(F)(F)F)c2c1 | 200 |  |
| Fc1cc2[nH]nc(-c3nc(N[C@H]4CCCNC4)ncc3C(F)(F)F)c2cc1F | < 20 |  |
| C[C@@H](O)c1cnc(N[C@H]2CCCNC2)nc1-c1c[nH]c2ccccc12 | 200 |  |
| FC(F)(F)c1cnc(N[C@@H]2CNC[C@H](c3nnc4ccccn34)C2)nc1-c1c[nH]c2ccccc12 | ≤ 20 |  |
| Brc1cnc(N[C@@H]2CCCNC2)nc1-c1c[nH]c2ccccc12 | < 20 |  |
| Cc1cccc2c(-c3nc(N[C@H]4CCCNC4)ncc3C(F)(F)F)c[nH]c12 | < 20 |  |
| CCc1cnc(N[C@H]2CCCNC2)nc1-c1c[nH]c2ccccc12 | 20 |  |
| Fc1ccc2[nH]cc(-c3nc(N[C@H]4CCCNC4)ncc3Cl)c2c1 | 20 | 100 |
| C[C@H]1CCNC[C@@H]1Nc1ncc(C(F)(F)F)c(-c2c[nH]c3ccccc23)n1 |  | 1000 |
| O=C(c1ccc2c(-c3nc(N[C@H]4CCCNC4)ncc3C(F)(F)F)c[nH]c2c1)N1CC[C@](O)(C(F)(F)F)C1 (single isomer, unassigned) |  | 1000 |
| CC1CCNCC1Nc1ncc(C(F)(F)F)c(-c2c[nH]c3ccccc23)n1 (single isomer, unassigned) |  | 100 |
| CC1(O)CCN(C(=O)c2ccc3c(-c4nc(N[C@H]5CCCNC5)ncc4C(F)(F)F)c[nH]c3c2)C1 (single isomer, unassigned) | 200 | 100 |
| CC1(C)CCNC[C@@H]1Nc1ncc(C(F)(F)F)c(-c2c[nH]c3ccccc23)n1 (single isomer, unassigned) | 20 |  |
| CC[C@@]1(O)CCN(C(=O)c2ccc3c(-c4nc(N[C@H]5CCCNC5)ncc4C(F)(F)F)c[nH]c3c2)C1 (single isomer, unassigned) |  | 1000 |
| N#Cc1ccc2c(-c3nc(N[C@@H]4CCC5(CCC5)NC4)ncc3C(F)(F)F)c[nH]c2c1 (single isomer, unassigned) |  | 100 |
| COC1CCN(C(=O)c2ccc3c(-c4nc(N[C@H]5CCCNC5)ncc4C(F)(F)F)c[nH]c3c2)C1 (single isomer, unassigned) |  | 100 |
| N#Cc1ccc2c(-c3nc(N[C@H]4CCC5(CCC5)NC4)ncc3C(F)(F)F)c[nH]c2c1 (single isomer, unassigned) |  | 1000 |
| O=C(c1ccc2c(-c3nc(N[C@H]4CCCNC4)ncc3C(F)(F)F)c[nH]c2c1)N1CC[C@@](O)(C(F)(F)F)C1 (single isomer, unassigned) |  | 100 |
| CC[C@]1(O)CCN(C(=O)c2ccc3c(-c4nc(N[C@H]5CCCNC5)ncc4C(F)(F)F)c[nH]c3c2)C1 (single isomer, unassigned) |  | 100 |
